Assay results from patent publication US6737383B1, “Herbicidal oxadiazolidines” (priority 1999, dated 2004).

Legend:
corn = test: Test B pre/postemergence corn; format: in vivo, Zea mays
Summary of the method: (§1)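 Test chemicals in a non-phytotoxic solvent mixture with surfactant were sprayed preemergence onto planted seeds and postemergence onto plants 2 to 18 cm tall (1- to 4-leaf stage). After twelve to sixteen days in a greenhouse, injury was visually rated against untreated controls from 0 (no effect) to 10 (complete control).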

rape = test: Test B pre/postemergence rape; format: in vivo, Brassica napus
Summary of the method: as §1

sugar beet = test: Test B pre/postemergence sugar beet; format: in vivo, Beta vulgaris
Summary of the method: as §1

duck salad = test: Test B flood test duck salad; format: in vivo, Heteranthera limosa
Summary of the method: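 Plants were grown to the 2-leaf stage before treatment with test chemical, then held in a greenhouse for twelve to sixteen days. Injury was visually rated against untreated controls on a 0–10 scale, where 0 is no effect and 10 is complete control.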

winter wheat [1] = test: Test E winter wheat; format: in vivo, Triticum aestivum; settings: Postemergence; for Wheat (winter) plant response rating: Rate 250 g/ha
Summary of the method: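 Postemergence: spray at 1–4 leaf stage, soil 60:40 sandy loam:potting mix; solvent + surfactant formulation; greenhouse 21–28 d; visual injury vs untreated controls.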

blackgrass = test: Test E blackgrass; format: in vivo, Alopecurus myosuroides; settings: Preemergence
green foxtail = test: Test E green foxtail; format: in vivo, Setaria viridis; settings: Preemergence
Italian ryegrass = test: Test E Italian ryegrass; format: in vivo, Lolium multiflorum; settings: Preemergence
winter wheat [2] = test: Test E winter wheat; format: in vivo, Triticum aestivum; settings: Preemergence
wild oat = test: Test E wild oat; format: in vivo, Avena fatua; settings: Preemergence
winter barley = test: Test E winter barley; format: in vivo, Hordeum vulgare; settings: Preemergence
[3] = Preemergence, Rate 31 g/ha, visual rating, scale 0 to 10 (0 no effect, 10 complete control)
[4] = Preemergence, Rate 62 g/ha, scale of 0 to 10 where 0 is no effect and 10 is complete control
[5] = Preemergence, Rate 250 g/ha, scale of 0 to 10 where 0 is no effect and 10 is complete control
[6] = Rate 31 g/ha, Postemergence, scale 0 to 10
[7] = Rate 62 g/ha, Postemergence, scale 0 to 10, 0 no effect, 10 complete control
[8] = Rate 125 g/ha, Postemergence, scale of 0 to 10 where 0 is no effect and 10 is complete control
[9] = Rate 125 g/ha, Preemergence, scale of 0 to 10 where 0 is no effect and 10 is complete control
[10] = Rate 250 g/ha, Postemergence, scale of 0 to 10 where 0 is no effect and 10 is complete control
[11] = Rate 62 g/ha, headed Pre-emergence (flood test species), scale 0 to 10 (0 no effect, 10 complete control)
[12] = Rate 125 g/ha, Pre-emergence, flood test species, scale 0 to 10 where 0 is no effect and 10 is complete control
[13] = Rate 250 g/ha, Pre-emergence, flood-test species, scale 0 to 10, 0 is no effect, 10 is complete control
[14] = Rate 1000 g/ha, 0 to 100 scale where 0 is no effect and 100 is complete control
[15] = 0 to 100 scale where 0 is no effect and 100 is complete control
[16] = Rate 500 g/ha, 0 to 100 scale, 0 is no effect, 100 is complete control
[17] = Rate 125 g/ha, 0 to 100 scale (0 no effect, 100 complete control)
[18] = Rate 500 g/ha, 0 to 100 scale (0 no effect, 100 complete control)
[19] = Rate 1000 g/ha, 0 to 100 scale, 0 no effect, 100 complete control
[20] = Preemergence, Rate 500 g/ha, scale of 0 to 10 where 0 is no effect and 10 is complete control
[21] = Rate 500 g/ha, Postemergence, scale 0 to 10, 0 no effect, 10 complete control
[22] = Rate 500 g/ha, 0 to 100 scale where 0 is no effect and 100 is complete control

## CC(Cl)=CCn1c(=O)on(C(=O)N(c2ccc(F)cc2)C(C)C)c1=O [Compound 285]
corn; [3]
  Corn plant response rating: 0
corn; [4]
  Corn plant response rating: 0
corn; [5]
  Corn plant response rating: 0
corn; [6]
  Corn plant response rating: 0
corn; [7]
  Corn plant response rating: 0
corn; [8]
  Corn plant response rating: 0
corn; [9]
  Corn plant response rating: 0
corn; [10]
  Plant response rating, Corn: 0
rape; [3]
  Rape plant response rating: 0
rape; [4]
  Rape plant response rating: 0
rape; [5]
  Rape plant response rating: 3
rape; [6]
  Rape plant response rating: 0
rape; [7]
  Rape plant response rating: 0
rape; [8]
  Rape plant response rating: 0
rape; [9]
  Rape plant response rating: 0
rape; [10]
  Plant response rating, Rape: 0
Sugar beet; [3]
  Sugarbeets plant response rating: 0
Sugar beet; [4]
  Sugarbeets plant response rating: 0
Sugar beet; [5]
  Sugarbeets plant response rating: 0
Sugar beet; [7]
  Sugarbeets plant response rating: 0
Sugar beet; [8]
  Sugarbeets plant response rating: 2
Sugar beet; [9]
  Sugarbeets plant response rating: 0
Sugar beet; [10]
  Plant response rating, Sugarbeets: 3
Duck salad; Rate 31 g/ha, Pre-emergence section (flood test species), scale 0 to 10
  Ducksalad plant response rating: 0
Duck salad; [11]
  Ducksalad plant response rating: 0
Duck salad; [12]
  Ducksalad plant response rating: 0
Duck salad; [13]
  Ducksalad plant response rating: 0
Winter wheat [1]; Rate 125 g/ha, 0 to 100 scale, 0 is no effect, 100 is complete control
  Plant response rating, Wheat (winter): 20
Winter wheat [1]; [14]
  Plant response rating, Wheat (winter): 30
Winter wheat [1]; [15]
  Wheat (winter) plant response rating: 20
Winter wheat [1]; [16]
  Plant response rating, Wheat (winter): 40
blackgrass; [17]
  Plant response rating, Blackgrass: 20
blackgrass; [18]
  Plant response rating, Blackgrass: 55
blackgrass; [19]
  Plant response rating, Blackgrass: 70
Green foxtail; [17]
  Plant response rating, Green foxtail: 20
Green foxtail; [18]
  Plant response rating, Green foxtail: 60
Green foxtail; [19]
  Plant response rating, Green foxtail: 65
Italian ryegrass; [17]
  Plant response rating, I. Ryegrass: 20
Italian ryegrass; [18]
  Plant response rating, I. Ryegrass: 70
Italian ryegrass; [19]
  Plant response rating, I. Ryegrass: 70
Winter wheat [2]; [17]
  Plant response rating, Wheat (winter): 30
Winter wheat [2]; [18]
  Plant response rating, Wheat (winter): 25
Winter wheat [2]; [19]
  Plant response rating, Wheat (winter): 50
Wild oat; [17]
  Plant response rating, Wild oat: 10
Wild oat; [18]
  Plant response rating, Wild oat: 20
Wild oat; [19]
  Plant response rating, Wild oat: 40
Winter barley; [17]
  Plant response rating, Barley (winter): 0
Winter barley; [18]
  Plant response rating, Barley (winter): 10
Winter barley; [19]
  Plant response rating, Barley (winter): 20

## CCN(C(=O)n1oc(=O)n(N(C)C)c1=O)C1CCCCC1 [Compound 274]
corn; [4]
  Corn plant response rating: 0
corn; [5]
  Corn plant response rating: 0
corn; [20]
  Plant response rating, Corn: 0
corn; Rate 62 g/ha, Postemergence, scale of 0 to 10 where 0 is no effect and 10 is complete control
  Corn plant response rating: 0
corn; [8]
  Corn plant response rating: 0
corn; [9]
  Corn plant response rating: 0
corn; [10]
  Plant response rating, Corn: 0
corn; [21]
  Corn plant response rating: 0
rape; [4]
  Rape plant response rating: 0
rape; [5]
  Rape plant response rating: 0
rape; [20]
  Plant response rating, Rape: 0
rape; [8]
  Rape plant response rating: 0
rape; [9]
  Rape plant response rating: 0
rape; [10]
  Plant response rating, Rape: 0
rape; [21]
  Rape plant response rating: 0
Sugar beet; [4]
  Sugarbeets plant response rating: 0
Sugar beet; [5]
  Sugarbeets plant response rating: 0
Sugar beet; [20]
  Plant response rating, Sugarbeets: 0
Sugar beet; [8]
  Sugarbeets plant response rating: 0
Sugar beet; [9]
  Sugarbeets plant response rating: 0
Sugar beet; [10]
  Plant response rating, Sugarbeets: 0
Sugar beet; [21]
  Sugarbeets plant response rating: 1
Duck salad; Pre-emergence, Rate 1000 g/ha, scale 0 to 10 (0 no effect, 10 complete control)
  Ducksalad plant response rating: 0
Duck salad; [11]
  Ducksalad plant response rating: 0
Duck salad; [12]
  Ducksalad plant response rating: 0
Duck salad; [13]
  Ducksalad plant response rating: 0
Duck salad; Rate 500 g/ha, Pre-emergence, flood test species, scale 0 to 10 (0 no effect, 10 complete control)
  Ducksalad plant response rating: 0
Duck salad; Rate 2000 g/ha, Pre-emergence (as headed), scale 0 to 10
  Ducksalad plant response rating: 0
Winter wheat [1]; [14]
  Plant response rating, Wheat (winter): 60
Winter wheat [1]; [15]
  Wheat (winter) plant response rating: 30
Winter wheat [1]; [16]
  Plant response rating, Wheat (winter): 50
blackgrass; Rate 250 g/ha
  Blackgrass plant response rating (0 to 100 scale): 0
blackgrass; [22]
  Plant response rating, Blackgrass: 30
blackgrass; [19]
  Plant response rating, Blackgrass: 65
Green foxtail; Rate 250 g/ha
  Green foxtail plant response rating (0 to 100 scale): 20
Green foxtail; [22]
  Plant response rating, Green foxtail: 30
Green foxtail; [19]
  Plant response rating, Green foxtail: 40
Italian ryegrass; Rate 250 g/ha
  I. Ryegrass plant response rating (0 to 100 scale): 20
Italian ryegrass; [22]
  Plant response rating, I. Ryegrass: 30
Italian ryegrass; [19]
  Plant response rating, I. Ryegrass: 50
Winter wheat [2]; Rate 250 g/ha
  Wheat (winter) plant response rating (0 to 100 scale): 30
Winter wheat [2]; [22]
  Plant response rating, Wheat (winter): 50
Winter wheat [2]; [19]
  Plant response rating, Wheat (winter): 50
Wild oat; Rate 250 g/ha
  Wild oat plant response rating (0 to 100 scale): 40
Wild oat; [22]
  Plant response rating, Wild oat: 50
Wild oat; [19]
  Plant response rating, Wild oat: 60
Winter barley; Rate 250 g/ha
  Barley (winter) plant response rating (0 to 100 scale): 50
Winter barley; [22]
  Plant response rating, Barley (winter): 60
Winter barley; [19]
  Plant response rating, Barley (winter): 55
